Patent US5817840A, “Water soluble taxol derivatives” (The Scripps Research Institute, priority 1997, dated 1998)
“Also recorded” adds a separate entry of the source.

What was measured:
tubulin / microtubules = experiment: Tubulin polymerization-depolymerization (CaCl2-induced depolymerization of microtubules); format: biochemical; details: 10^-6 M; 1.0 mg/mL tubulin; CaCl2 0.25 mM after 16 minutes; 37° C.; initial, no prior release
Procedure: Tubulin polymerization to microtubules is promoted by GTP, whereas CaCl2 causes depolymerization of microtubules back to tubulin (FIG. 3A). […] The designed protaxol 5 was tested for its ability to stabilize microtubules formed from tubulin via the action of GTP. […] These findings are in agreement with the previously reported loss of activity resulting from blocking the C-2' hydroxyl group.
Tubulin polynerization-depolymerization experiments with taxol and designed protaxol 5 are illustrated in FIG. 3. CaCl2 -promoted depolymerization of microtubules was suppressed by taxol and protaxol 5 (after taxol release).
These measurements may be conducted at 37° C. following a recently developed procedure described by R. Merlock and W. Wrasidlo (Analytical Biochemistry, 1993). In each case 1.0 mM GTP may be employed to promote initial polymerization of tubulin.
D: Tubulin (1.0 mg/mL) with protaxol 5 (10^-6 M) after release of taxol (as determined by HPLC, essentially quantitative conversion).

[1] = tested on: PC-3 (prostate carcinoma); experiment: Cytotoxicity (sulphorhodamine B), cancer cell line, Table 1B; format: cell-based; details: Homo sapiens, 72 h
H322 (lung carcinoma) [2] = experiment: as above; format: cell-based; details: NCI-H322, 72 h
[3] = tested on: MOLT-4 (T-cell leukaemia); experiment: as above; format: cell-based; details: Homo sapiens, MOLT-4, 72 h
[4] = tested on: 786-0 (renal cell carcinoma); experiment: as above; format: cell-based; details: Homo sapiens, 786-0, 72 h
MCF-7 (breast carcinoma) [5] = experiment: as above; format: cell-based; details: Homo sapiens, MCF7, 72 h
SIHA (cervix carcinoma) = experiment: as above; format: cell-based; details: Homo sapiens, SiHa, 72 h
[6] = tested on: RPMI-7666 (normal human PBLs); experiment: Cytotoxicity (sulphorhodamine B), normal cell line, Table 1B; format: cell-based; details: 72 h
[7] = tested on: OVCAR-3 (ovarian carcinoma); experiment: Cytotoxicity (sulphorhodamine B), cancer cell line, Table 1B; format: cell-based; details: Homo sapiens, OVCAR-3, 72 h
[8] = tested on: broad spectrum of cell lines; experiment: Cytotoxicity against a broad spectrum of cell lines (overall); details: Table 1B
Procedure: The protaxols synthesized in this study were tested against a broad spectrum of cell lines ranging from the multiple-drug resistant ovarian (OVCAR-3) to lung (H-322) and leukemia (MOLT-4) cells in order to assess cytotoxicity, cell-type selectivity, and duration of action.
The cytotoxicities were determined using the sulphorhodamine B assay method (Skehan, P. et al. J. Nat. Canc. Inst. 82, 1107 (1990)).

[9] = cited from earlier work
[10] = tested on: HL-60 (promyel carcinoma); experiment: Cytotoxicity (sulphorhodamine B), cancer cell line, Table 1B; format: cell-based; details: Homo sapiens, HL-60, 72 h
[11] = tested on: CHO (normal human mammary); experiment: Cytotoxicity (sulphorhodamine B), normal cell line, Table 1B; format: cell-based; details: Homo sapiens, 72 h
[12] = tested on: CHO (Chinese hamster ovary); experiment: as above; format: cell-based; details: Cricetulus griseus, 72 h
physchem = experiment: physchem
Procedure: The solubilities of the synthesized protaxols in D2 O were determined by 1H NMR spectroscopy.
The resulting mixture was centrifuged for 20 minutes and the supernatant saturated solution was analysed by ^1 H NMR spectroscopy using a Bruker AMX-400 instrument and methanol or pyridine as internal standard. The concentration of the compound was determined by comparing several signals with the CH3 signal of methanol or the NCH signal of pyridine.

SK-MEL-28 (melanoma) = experiment: Cytotoxicity, Example 8; format: cell-based; details: Homo sapiens, SK-MEL-28, 72 h
Procedure: (§1) Tumor or normal cells were cultured in 96-well plates with the test compound in 200 μl of RPMI supplemented with 10% fetal bovine serum (Hyclone, Salt Lake City, Utah) at 37° C. in a humidified atmosphere containing 5% CO2 in air for 72 hours. Sulforhodamine B dissolved in 1% acetic acid was added, and the plates were incubated for 30 minutes at ambient temperature, washed with 1% acetic acid, and blotted. To the air-dried plates were added 100 μl of […] unbuffered TRIS base (pH 10.5) with shaking. The optical densities of the plates were measured with a microplate reader (Molecular Devices Thermomax) at 540 nm. The concentration of compound required to reduce the absorbance to 50% of control samples was recorded as IC50.
(§2) NHDF: Normal human dermal fibroblast (available from Clouelics Corp., San Diego, Calif.); HLF-1: Normal human diploid lung; W1-38; Normal human diploid lung; CHO; Chinese hamster ovary; SK-MEL-28: Melanoma; CAPAN-1: Pancreatic carcinoma; H322: lung carcinoma; MCF-7; Breast carcinoma; BT-549; Human breast ductal carcinoma; OVCAR-3: Human ovarian carcinoma; HT-29: Human adenocarcinoma, colon; SIHA: Human squamous carcinoma crvx; 786-0: Human perirenal cell adenocarci; PC-3: Human prostate adenocarcinoma; HL-60: Human promyelomic leukemia; MOLT-4: Human T-cell leukemia. All cell lines except NHDF are available from the American Tissue Culture Collection, Rockville, Md.

[13] = tested on: BT-549 (human breast ductal carcinoma); experiment: Cytotoxicity, Example 8; format: cell-based; details: BT-549, 72 h
Procedure: as §1, §2

[14] = tested on: W1-38 (normal human diploid lung); experiment: Cytotoxicity, Example 8; format: cell-based; details: W138, 72 h
Procedure: as §1, §2

[15] = tested on: S1HA (human squamous carcinoma crvx); experiment: Cytotoxicity, Example 8; format: cell-based; details: 72 h
Procedure: as §1, §2

H322 (lung carcinoma) [16] = experiment: Cytotoxicity, Example 8; format: cell-based; details: NCI-H322, 72 h
Procedure: as §1, §2

[17] = tested on: OVCAR-3 (human ovarian carcinoma); experiment: Cytotoxicity, Example 8; format: cell-based; details: OVCAR-3, 72 h
Procedure: as §1, §2

[18] = tested on: HLF-1 (normal human diploid lung); experiment: Cytotoxicity, Example 8; format: cell-based; details: HLF1, 72 h
Procedure: as §1, §2

[19] = tested on: 786-0 (human perirenal cell adenocarci); experiment: Cytotoxicity, Example 8; format: cell-based; details: 786-0, 72 h
Procedure: as §1, §2

[20] = tested on: PC-3 (human prostate adenocarcinoma); experiment: Cytotoxicity, Example 8; format: cell-based; details: 72 h
Procedure: as §1, §2

[21] = tested on: CAPAN-1 (pancreatic carcinoma); experiment: Cytotoxicity, Example 8; format: cell-based; details: Homo sapiens, CAPAN-1, 72 h
Procedure: as §1, §2

[22] = tested on: NHDF (normal human dermal fibroblast); experiment: Cytotoxicity, Example 8; format: cell-based; details: 72 h
Procedure: as §1, §2

MCF-7 (breast carcinoma) [23] = experiment: Cytotoxicity, Example 8; format: cell-based; details: Homo sapiens, MCF7, 72 h
Procedure: as §1, §2

[24] = tested on: HT-29 (human adenocarcinoma, colon); experiment: Cytotoxicity, Example 8; format: cell-based; details: HT-29, 72 h
Procedure: as §1, §2

[25] = tested on: CHO (Chinese hamster ovary); experiment: Cytotoxicity, Example 8; format: cell-based; details: Cricetulus griseus, 72 h
Procedure: as §1, §2

Capan-1 (pancreatic) = experiment: Cytotoxicity (sulphorhodamine B), cancer cell line, Table 1B; format: cell-based; details: Homo sapiens, CAPAN-1, 72 h
HT-29 (colon carcinoma) = experiment: as above; format: cell-based; details: Homo sapiens, HT-29, 72 h
[26] = tested on: BT-549 (breast carcinoma); experiment: as above; format: cell-based; details: Homo sapiens, BT-549, 72 h
[27] = tested on: BALB/c 3T3 (normal mouse embryo); experiment: Cytotoxicity (sulphorhodamine B), normal cell line, Table 1B; format: cell-based; details: BALB/c3T3, 72 h
NHDF (normal human skin) = experiment: as above; format: cell-based; details: 72 h
L1210 (mouse leukaemia) = experiment: Cytotoxicity (sulphorhodamine B), cancer cell line, Table 1B; format: cell-based; details: L1210, 72 h
[28] = tested on: UCLA-P-3 (lung carcinoma); experiment: as above; format: cell-based; details: Homo sapiens, UCLA P-3, 72 h
SK (melanoma) = experiment: as above; format: cell-based; details: 72 h

## CC(=O)O[C@H]1C(=O)[C@@]2(C)[C@H]([C@H](OC(=O)c3ccccc3)[C@]3(O)C[C@H](OC(=O)[C@H](O)[C@@H](NC(=O)c4ccccc4)c4ccccc4)C(C)=C1C3(C)C)[C@]1(OC(C)=O)CO[C@@H]1C[C@@H]2O [Taxol]
Tubulin / microtubules
  prevention of CaCl2-induced depolymerization of microtubules: stabilizes microtubules against CaCl2-induced depolymerization; also recorded: suppressed; also recorded: did not cause depolymerization
[1]
  IC50: 1 µM
H322 (lung carcinoma) [2]
  IC50: 0.001 µM
[3]
  IC50: < 0.001 µM
[4]
  IC50: 0.1 µM
MCF-7 (breast carcinoma) [5]
  IC50: < 10 µM
SIHA (cervix carcinoma)
  IC50: 10 µM
[6]
  IC50: 100 µM
[7]
  IC50: < 0.001 µM
[8]
  selectivity against cancer cells versus normal cells: rather impressive selectivity
[9]
  water solubility of taxol: only slightly soluble in water; also recorded: essentially insoluble in water
[10]
  IC50: < 0.001 µM
[11]
  IC50: 100 µM
[12]
  IC50: 100 µM
physchem
  Water solubility: < 100 µg/mL
SK-MEL-28 (melanoma)
  IC50: 100 µM
[13]
  IC50: 44.6 µM
[14]
  IC50: 60.6 µM
[15]
  IC50: 1110 µM
H322 (lung carcinoma) [16]
  IC50: 122 µM
[17]
  IC50: 0.098 µM
[18]
  IC50: 63 µM
[19]
  IC50: 0.184 µM
[20]
  IC50: 69.1 µM
[21]
  IC50: 0.098 µM
[22]
  IC50: 208 µM
MCF-7 (breast carcinoma) [23]
  IC50: 64.4 µM
[24]
  IC50: 0.098 µM
[25]
  IC50: 53.5 µM
Capan-1 (pancreatic)
  IC50: < 0.001 µM
HT-29 (colon carcinoma)
  IC50: < 0.001 µM
[26]
  IC50: 0.001 µM
[27]
  IC50: 1 µM
NHDF (normal human skin)
  IC50: 1 µM
L1210 (mouse leukaemia)
  IC50: 1 µM
[28]
  IC50: < 0.001 µM
SK (melanoma)
  IC50: 10 µM
